For data set [1], the system named is Rattus norvegicus. The data set is described as follows: Hypocholesterolemic activity in Wistar rat model with high cholesterol diet assessed as liver NAFLD activity score at 6 mg/kg, po qd measured after 23 days by H and E staining assay relative to control. The class given is functional. Conditions: time 23 day.
The subject of data set [2] is Rattus norvegicus. Nature of the data set: Hypocholesterolemic activity in Wistar rat model with high cholesterol diet assessed as reduction of steatosis at 6 mg/kg, po qd measured after 23 days by H and E staining assay relative to control. The class given is functional. The arrangement: scale not given: the % may be the effect or the level left. Particulars: time 23 day.

In data set [3] the test system is Rattus norvegicus. Nature of the data set: Effect on Wistar rat model with high cholesterol diet assessed as ratio of liver weight to body weight at 6 mg/kg, po qd measured after 23 days. The class given is ADME, organism-based. Conditions: in vivo, 552 h, time 23 day.
The test system of data set [4] is Rattus norvegicus. Nature of the data set: Hypocholesterolemic activity in Wistar rat model with high cholesterol diet assessed as reduction in liver NAFLD activity score at 6 mg/kg, po qd measured after 23 days by H and E staining assay. Conditions: time 23 day. It is filed as functional.
Data set [5] deals with Rattus norvegicus. The data set is described as follows: Hypocholesterolemic activity in Wistar rat model with high cholesterol diet assessed as amount of Triglycerides in serum at 6 mg/kg, po qd measured after 23 days by microplate reader assay relative to control. Conditions: time 23 day. It is filed as functional.
Data set [6] concerns Rattus norvegicus. Nature of the data set: Hypocholesterolemic activity in Wistar rat model with high cholesterol diet assessed as amount of LDL-C in serum at 6 mg/kg, po qd measured after 23 days by microplate reader assay relative to control. Particulars: time 23 day. The class given is functional.
For data set [7], the system named is Rattus norvegicus. Nature of the data set: Hypocholesterolemic activity in Wistar rat model with high cholesterol diet assessed as reduction in liver lobular inflammation at 6 mg/kg, po qd measured after 23 days by H and E staining assay. Particulars: time 23 day. It is filed as functional.
Data set [8] concerns Rattus norvegicus. Nature of the data set: Hypocholesterolemic activity in Wistar rat model with high cholesterol diet assessed as amount of Total cholesterol in serum at 6 mg/kg, po qd measured after 23 days by microplate reader assay relative to control. It is filed as functional. Conditions: time 23 day.
Data set [9] has as its system Rattus norvegicus. The data set is described as follows: Hypocholesterolemic activity in Wistar rat model with high cholesterol diet assessed as reduction of steatosis at 6 mg/kg, po qd measured after 23 days by H and E staining assay. The class given is functional. Particulars: time 23 day.
In data set [10] the test system is Rattus norvegicus. The data set is described as follows: Effect on body weight in Wistar rat model with high cholesterol diet at 6 mg/kg, po qd measured after 23 days. It is filed as ADME, organism-based. Particulars: in vivo, 552 h, time 23 day.
Data set [11] deals with Rattus norvegicus. The data set is described as follows: Effect on body weight gain in Wistar rat model with high cholesterol diet at 6 mg/kg, po qd measured after 23 days relative to control. The class given is ADME, organism-based. Conditions: in vivo, 552 h, time 23 day.
For data set [12], the system named is Rattus norvegicus. Nature of the data set: Effect on liver weight in Wistar rat model with high cholesterol diet at 6 mg/kg, po qd measured after 23 days. The class given is ADME, organism-based. Particulars: in vivo, 552 h, time 23 day.
Data set [13] relates to Rattus norvegicus. Nature of the data set: Hypocholesterolemic activity in Wistar rat model with high cholesterol diet assessed as amount of HDL-C in serum at 6 mg/kg, po qd measured after 23 days by microplate reader assay relative to control. The class given is functional. Conditions: time 23 day.

In ChEMBL document CHEMBL5032531, “Hypocholesterolemic Efficacy of Secoisolariciresinol Diglucoside and Its Polymer in Rat” (J Nat Prod, 2021) one finds Activity data, which are given here for one molecule.

Regarding `COc1cc(C[C@H](CO[C@@H]2O[C@H](CO)[C@@H](O)[C@H](O)[C@H]2O)[C@@H](CO[C@@H]2O[C@H](CO)[C@@H](O)[C@H](O)[C@H]2O)Cc2ccc(O)c(OC)c2)ccc1O` [(+)-SECOISOLARICIRESINOLDIGLUCOSIDE], the Activity is 14.3% in data set [1]; 22.2% in data set [2]; 31.5 g/kg in data set [3]; 2.4 in data set [4]; 15% in data set [5]; 14% in data set [6]. The Activity in [7] was determined as 1; in [8], 10%; in data set [9], 1.4; in data set [10], 330 g; in [11], 32%; in [12] it was 10.4 g. In addition, the Activity in [13] stood at 24%.
